Values quoted from earlier work, collected in US20150276574A1, “CELL ANALYSIS METHOD” (SYSMEX CORPORATION, priority 2014, published 2015).
Like-named read-outs stand apart in the source and are kept apart here.

| Molecule | Solubility in 100 g of water at 20° C. (100 g of water, 20° C.) | Solubility in 100 g of water at 20° C. |
| --- | --- | --- |
| CCC(O)C(=O)O (centres unmarked) [2-hydroxybutyric acid] | ≥ 5 g | – |
| O=C(O)CCCC(=O)O [glutaric acid] | 43 g | – |
| CC1=CC(=O)OC1=O [citraconic anhydride] | ≥ 10 g | – |
| CC(C)=CC(=O)O [3-methylcrotonic acid] | – | ≥ 2 g |

Next, values leading:

| Solubility in 100 g of water at 20° C. (100 g of water, 20° C.) | Solubility in 100 g of water at 20° C. | Molecule |
| --- | --- | --- |
| 44 g | – | O=C(O)/C=C\C(=O)O [maleic acid] |
| 20 g | – | NC(=O)NCCC[C@H](N)C(=O)O [citrulline] |
| ≥ 5 g | – | aminobutanoic acid |
| 5 g | – | O=C(O)CC(O)C(=O)O (centres unmarked) [malic acid] |
